According to patent publication US20240368109A1, “ALLOSTERIC MODULATORS OF NICOTINIC ACETYLCHOLINE RECEPTORS” (MERCK SHARP & DOHME LLC, priority 2021, published 2024):

Target: human α7 nAChR (Homo sapiens (Human), UniProt P36544)
Assay: Automated patch-clamp electrophysiology functional assay (Assay A)
Format: cell-based
Conditions: IonFlux HT whole-cell population patch, HEK cells expressing human α7/RIC-3, 40 μM acetylcholine
Outline: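 Whole-cell population patch clamp on HEK cells stably co-expressing human α7 and RIC-3, held at −60 mV, room temperature. Compounds tested at three ascending concentrations per recording with or without 40 μM acetylcholine; currents normalized to the 40 μM acetylcholine-evoked reference response to give agonist and potentiation EC50.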

human α7 nAChR, sequence (P36544 23-502): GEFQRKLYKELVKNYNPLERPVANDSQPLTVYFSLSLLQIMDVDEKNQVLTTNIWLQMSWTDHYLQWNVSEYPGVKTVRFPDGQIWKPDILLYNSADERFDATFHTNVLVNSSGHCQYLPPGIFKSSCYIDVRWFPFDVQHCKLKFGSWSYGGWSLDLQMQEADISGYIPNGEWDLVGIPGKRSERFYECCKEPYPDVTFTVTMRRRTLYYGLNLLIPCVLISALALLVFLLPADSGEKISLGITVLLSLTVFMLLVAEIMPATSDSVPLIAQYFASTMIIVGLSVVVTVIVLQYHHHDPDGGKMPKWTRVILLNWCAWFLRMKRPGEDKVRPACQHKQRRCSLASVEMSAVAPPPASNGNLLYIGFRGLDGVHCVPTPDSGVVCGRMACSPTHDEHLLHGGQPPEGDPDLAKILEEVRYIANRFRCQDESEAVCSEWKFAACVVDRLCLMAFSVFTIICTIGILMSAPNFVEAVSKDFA

Compound | EC50 (potency class) [nM] | EC50 (electrophysiology EC50 values) [nM]
O=C(NCc1n[nH]c2c1CCCCC2)[C@H]1[C@@H]2Oc3ccc(F)cc3[C@@H]21 [Example C33, 3-{[(exo-5-fluoro-1a,6b-dihydro-1H-cyclopropa[b][1]benzofuran-1-carbonyl)amino]methyl}-1,4,5,6,7,8-hexahydrocyclohepta[c]pyrazole] | 500 to 5000 | –
O=C(NCc1ccc(Oc2ccccn2)cc1)C1C2Oc3ccc(F)cc3C21 (stereo not drawn) [Example C34, exo-5-fluoro-N-({4-[(pyridin-2-yl)oxy]phenyl}methyl)-1a,6b-dihydro-1H-cyclopropa[b][1]benzofuran-1-carboxamide] | 500 to 5000 | 810
O=C(NCc1cccc(-c2ncco2)c1)C1C2Oc3ccc(F)cc3C21 (stereo not drawn) [Example C35, exo-5-fluoro-N-{[3-(1,3-oxazol-2-yl)phenyl]methyl}-1a,6b-dihydro-1H-cyclopropa[b][1]benzofuran-1-carboxamide] | 500 to 5000 | 2400
C[C@H](NC(=O)C1C2Oc3ccc(F)cc3C21)c1cccc2ncccc12 (stereo partly drawn) [Example C36, 5-{(1S)-1-[(exo-5-fluoro-1a,6b-dihydro-1H-cyclopropa[b][1]benzofuran-1-carbonyl)amino]ethyl}quinoline] | 500 to 5000 | 1300
O=C(NCc1ccc2cnccc2c1)C1C2Oc3ccc(F)cc3C21 (stereo not drawn) [Example C38, 6-{[(exo-5-fluoro-1a,6b-dihydro-1H-cyclopropa[b][1]benzofuran-1-carbonyl)amino]methyl}isoquinoline] | 500 to 5000 | 4700
O=C(NC(c1ccccc1)c1ccncc1)[C@@H]1[C@H]2Oc3ccc(F)cc3[C@H]21 (stereo partly drawn) [Example C39, 4-{[(exo-5-fluoro-1a,6b-dihydro-1H-cyclopropa[b][1]benzofuran-1-carbonyl)amino](phenyl)methyl}pyridine] | 500 to 5000 | –

Next, values leading:

EC50 (potency class) [nM] | EC50 (electrophysiology EC50 values) [nM] | Compound
500 to 5000 | – | O=C(NCc1nc2ccccc2s1)C1C2Oc3ccc(F)cc3C21 (stereo not drawn) [Example C28, 2-{[(exo-5-fluoro-1a,6b-dihydro-1H-cyclopropa[b][1]benzofuran-1-carbonyl)amino]methyl}-1,3-benzothiazole]
500 to 5000 | 1800 | COC(=O)C(NC(=O)C1C2Oc3ccc(F)cc3C21)c1cccc(Cl)c1 (stereo not drawn) [Example C29, methyl 2-(3-chlorophenyl)-2-[(exo-5-fluoro-1a,6b-dihydro-1H-cyclopropa[b][1]benzofuran-1-carbonyl)amino]acetate]
500 to 5000 | 2800 | O=C(N[C@@H](CCO)c1ccc(F)cc1)C1C2Oc3ccc(F)cc3C21 (stereo partly drawn) [Example C30, exo-5-fluoro-N-[(1S)-1-(4-fluorophenyl)-3-hydroxypropyl]-1a,6b-dihydro-1H-cyclopropa[b][1]benzofuran-1-carboxamide]
500 to 5000 | 1800 | Cc1ccccc1CNC(=O)C1C2Oc3ccc(F)cc3C21 (stereo not drawn) [Example C31, exo-5-fluoro-N-[(2-methylphenyl)methyl]-1a,6b-dihydro-1H-cyclopropa[b][1]benzofuran-1-carboxamide]
100 to 500 | 190 | O=C(NCc1cc(-c2ccccc2)no1)C1C2Oc3ccc(F)cc3C21 (stereo not drawn) [Example C32, exo-5-fluoro-N-[(3-phenyl-1,2-oxazol-5-yl)methyl]-1a,6b-dihydro-1H-cyclopropa[b][1]benzofuran-1-carboxamide]
500 to 5000 | 1800 | CC(NC(=O)C1C2Oc3ccc(F)cc3C21)c1ccc(Br)cc1 (stereo not drawn) [Example C37, exo-N-[1-(4-bromophenyl)ethyl]-5-fluoro-1a,6b-dihydro-1H-cyclopropa[b][1]benzofuran-1-carboxamide]
500 to 5000 | 620 | O=C(NCc1ccccc1OCC1CC1)C1C2Oc3ccc(F)cc3C21 (stereo not drawn) [Example C40, exo-N-{[2-(cyclopropylmethoxy)phenyl]methyl}-5-fluoro-1a,6b-dihydro-1H-cyclopropa[b][1]benzofuran-1-carboxamide]
500 to 5000 | – | O=C(NCc1nc(Br)no1)C1C2Oc3ccc(F)cc3C21 (stereo not drawn) [Example C41, exo-N-[(3-bromo-1,2,4-oxadiazol-5-yl)methyl]-5-fluoro-1a,6b-dihydro-1H-cyclopropa[b][1]benzofuran-1-carboxamide]
